Measurements taken from US8044057B2, “Methods for suppressing an immune response or treating a proliferative disorder” (The United States of America as represented by the …, priority 2003, dated 2011).

What was measured:
recombinant CK2 = target: T1, recombinant CK2 (Homo sapiens, UniProt P68400); test: Casein kinase 2 activity kit, 32P incorporation into substrate peptide; format: biochemical
T1 construct: purchased Upstate Biotechnology 17-132 (number of the activity kit, not of the enzyme)
Protocol: FIGS. 5A-5B are bar graphs showing that LY303511 inhibits the cell cycle by causing combined G1 and G2/M arrest and that LY303511 inhibits CK2 activity. For the data shown in FIG. 5A, PASM cells were cultured in medium with FBS for 48 hours before the addition of 0-100 μM LY303511 without or with raparnycin, 400 ng/ml, for 24 hours. Cells were then harvested and incubated with propidium iodide for 2 hours before counting using a Becton-Dickson FACSCalibur. Data are the means (±SEM) of percentages of cells in G1, S, or G2/M phase of the cell cycle in three experiments with duplicate assays. *p<0.05 vs. DMSO control, or †p<0.05 vs. 10 μM LY303511, by Student's t—test. FIG. 5B is a bar graph showing that LY303511 or LY294002 inhibits CK2 in vitro. As per the manufacturer (Upstate Biotechnologies), 0 or 100 ng of recombinant CK2 were incubated with CK2 substrate peptide and ^32P-γ-ATP for 10 min with 1% DMSO or inhibitors as indicated. Data are the means of values for samples with inhibitors expressed as percentage of that for control, which was (mean±SEM) 0.2±0.03 pmol phosphate/100 ng protein/10 min. Data are from three experiments performed in duplicate. *p<0.05 by Student's t-test when compared to DMSO control.
One specific assay for casein kinase 2 activity is available commercially as a kit from Upstate Biotechnology (New York). The assay is based on phosphorylation of a specific substrate (CK-2 substrate peptide) using the transfer of the gamma-phosphate of ^32P-ATP by casein kinase 2 during a 10 minute incubation at 30° C. The phosphorylated substrate is then separated from the residual ^32P-ATP using P81 phosphocellulose paper, and quantified by scintillation counting.
Casein kinase 2 (CK2) activity (counts per rninute) was measured using a casein kinase 2 activity kit (Upstate Biotechnology catalogue number 17-132) by incubating recombinant 100 ng CK2, magnesium/ATP cocktail (10 mcCi ^32P-garnma-ATP, 0.675 micromoles MgCl2, 4.5 nmoles ATP), and 10 micromoles peptide substrate (arnino acid sequence RRRDDDSDDD (SEQ ID NO: 1) in 50 mcl assay buffer without or with the indicated concentrations of DMSO (1%), LY294002, LY303511, or rapamycin for 10 minutes at 30° C. Assays were stopped with 20 mcl of 40% trichloroacetic acid, and 25 mcl were spotted on P81 phosphocellulose paper squares before washing 3 times with 0.75% phosphoric acid, and once with acetone. 32P incorporation on the substrate peptide was detected by counting the phosphocellulose squares in 5 ml scintillation fluid using a Packard 100 Tri-Carb liquid scintillation counter.
Measurement of casein kinase 2 (CK2) activity: CK2 activity (counts per minute) was measured using a CK2 activity kit (Upstate, Charlottesville, Va.) by incubating 100 ng of recombinant CK2, rnagnesium/ATP cocktail (10 μCi ^32P-gamma-ATP, 0.675 μmol MgCl2, 4.5 nmol ATP), and 10 μmol peptide substrate (amino acid sequence RRRDDDSDDD) in 50 μl assay buffer (20 mM MOPS, pH 7.2, 5 mM EGTA, 25 mM β-glycerol phosphate, 1 mM sodium orthovanadate, 1 mM dithiothreitol) without or with the indicated concentrations of LY294002, LY303511, wortmannin or rapamycin in 1% DMSO for 10 min at 30° C. Assays were stopped with 20 μl of 40% trichloroacetic acid, and samples (25 μl) of supernatant were applied to P81 phosphocellulose paper squares, which were then washed three times with 0.75% phosphoric acid, and once with acetone. ^32P in the substrate peptide was quantified using a Packard 100 Tri-Carb liquid scintillation counter on phosphocellulose squares in 5 ml of scintillation fluid. Activity is expressed as pmol phosphate incorporated per 10 minutes. CK2 activity measured in the presence of inhibitors was divided by that measured for the DMSO control (=100% control).

NOD mouse model = test: NOD and Hashimoto's autoimmune animal models; format: in vivo; details: compared to untreated animals
From the text: There are several animal based autoimmune models that can be used to test the use of the compounds disclosed herein for the treatment of an autoimmune disorder. Table 2 lists several exemplary immune-mediated disorders that can be treated using a peptide/MHC complex. For example, the non-obese diabetic (NOD) mouse model is an animal model system wherein animals develop diabetes with increasing age. To test the efficacy of a particular compound, groups of animals at the prediabetic stage (4 weeks or younger) are treated with, for example, LY303511, or LY303511 in combination with an additional immunosuppressive agent. The number of animals developing diabetes, and the rate that the anirnals develop diabetes, is then analyzed. Similarly, in the Hashimoto's mouse model system, to test the efficacy of a vaccine, groups of animals prior to the development of symptoms are treated with a treated with, for example, LY303511, or LY303511 in combination with an additional immunosuppressive agent. The number of animals developing the disease, and the rate that the animals develop the disease, are then analyzed.

T1 sequence (P68400 whole entry): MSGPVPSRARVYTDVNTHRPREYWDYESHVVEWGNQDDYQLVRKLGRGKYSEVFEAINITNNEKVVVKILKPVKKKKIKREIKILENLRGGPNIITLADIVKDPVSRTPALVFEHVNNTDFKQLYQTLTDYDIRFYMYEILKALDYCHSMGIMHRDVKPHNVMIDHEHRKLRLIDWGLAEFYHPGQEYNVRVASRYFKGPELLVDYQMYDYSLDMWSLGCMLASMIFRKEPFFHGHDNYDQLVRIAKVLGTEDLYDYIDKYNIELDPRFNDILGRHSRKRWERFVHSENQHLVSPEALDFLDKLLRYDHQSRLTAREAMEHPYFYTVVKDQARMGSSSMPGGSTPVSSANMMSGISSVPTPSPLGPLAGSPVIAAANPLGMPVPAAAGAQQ
T1 sequence (P67870 2-215 partner limits assumed): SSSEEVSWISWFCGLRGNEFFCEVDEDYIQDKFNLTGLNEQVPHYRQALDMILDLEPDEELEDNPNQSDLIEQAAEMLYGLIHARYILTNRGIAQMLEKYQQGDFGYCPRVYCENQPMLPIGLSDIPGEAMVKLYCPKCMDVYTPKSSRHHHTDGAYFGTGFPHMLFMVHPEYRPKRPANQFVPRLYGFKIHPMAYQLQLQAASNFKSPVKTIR

Question: `O=c1cc(N2CCNCC2)oc2c(-c3ccccc3)cccc12` [LY303511, 2-(4-piperazinyl)-8-phenyl-4H-1-benzopyran-4-one] was tested. Which CK2 activity (recombinant CK2; 100 ng recombinant CK2, 10 min at 30° C.) did it give?
Answer: concentration-dependent inhibition of CK2 activity

Question: What about the “preferential inhibition as compared to PI3K” value (recombinant CK2; P70 S6 kinase and casein kinase 2 versus PI3K) of the same compound?
Answer: preferentially inhibits P70 S6 kinase and casein kinase 2 as compared to PI3K

Question: What about the IC50 (recombinant CK2; recombinant CK2 in vitro, read-out: IC50 for casein kinase 2) of the same compound?
Answer: 10 to 100 µM

Question: And the “progression or development of autoimmune disease” value (NOD mouse model)?
Answer: delays the progression of the disease, or provides protection from developing the disease
